The test system of one assay is p-Erk (A375). The assay can be described thus: Cell-based phosphorylation assay with electroblotting readout. The arrangement: species or system human. Particulars: A375 cells; for EC50: Homo sapiens, A-375, 1 hr. From the text:
Compounds of the present invention have been screened for their ability to inhibit all isoforms, both wild-type and mutant of RAF kinases (A-RAF, B-RAF and C-RAF) in general, and the mutant B-RAF (V600E) in particular in human cancer cells. A375 is a human melanoma cell line that harbors the most common B-RAF mutation-V600E found in human cancers. The ability of compounds to inhibit RAF kinases in this assay is correlated with the reduction of MEK and ERK phosphorylation, and is therefore a direct indicator of potential in vivo therapeutic activity.
Materials: A375 cells from ATCC were maintained at 37° C., 5% CO2 in DMEM media supplemented with 10% fetal bovine serum, penicillin/streptomycin and fungizone. (Invitrogen)
Methods: Test compounds were dissolved and diluted 1:1000 in DMSO. A375 cells were seeded in six-well tissue culture plates at 5-8×10^5 per well and cultured at 37° C. for 24 h. Cells were incubated with compounds for one hour before being lysed in EPage™ loading buffer (Invitrogen). Lysates were electrophoresed on 8% EPage™ gels and transferred to polyvinylidene difluoride membranes. After incubations with primary and secondary antibodies, the immunostained proteins were detected and quantitated by an Odyssey infrared imager (LI-COR). Analysis was performed by non-linear regression to generate a dose response curve. The calculated IC50 value was the concentration of the test compound that causes a 50% decrease in phospho-MEK and phospho-ERK levels. The primary antibodies used were anti-MEK (Stressgen), anti-ERK (BD Biosciences), anti-phospho-ERK and anti-phospho-MEK (Cell Signaling). The secondary antibodies used were IRDYE800 anti-rabbit, IRDYE 800 anti-mouse (Rockland), AlexaFluor680 anti-mouse and AlexaFluoro680 anti-rabbit (Invitrogen).
A375 cells were treated with 0, 12, 37, 111, 333 and 1000 nM of indicated compounds for 1 hr. The levels of Phospho-ERK and total-ERK were accessed by immunoblotting.

Another assay concerns the target T1, mutant B-RAF (Homo sapiens, UniProt P15056, V600E).
T1 construct: purchased Upstate (Charlottesville, Va.)
As to the kind of experiment: Measurement of RAF activity (MEK-1 phosphorylation). The assay is classed as biochemical. Particulars: for increase in IC50 relative to compound 14: mutant B-RAF. As for the experimental part: Materials: The RAF kinases and the anti-phospho MEK1/2 antibody were from Upstate (Charlottesville, Va.). The RAF substrate used was full length N-terminal GST-MEK-1, which was expressed in E. coli and purified in-house by HPLC. All proteins were aliquoted and stored at −80° C. Superblock™ in phosphate buffered saline (PBS) blocking reagent was form Pierce (cat. #37515). ATP was from Roche (cat. # 19035722). Alkaline Phosphatase-tagged goat anti-rabbit antibody was from Pierce (cat. # 31340).
Methods: All RAF biochemical assays were performed using an assay buffer containing 20 mM MOPS, 5 mM EGTA, 37.5 mM MgCl2, 1 mM DTT and 50 μM ATP. There was 6.25 ng/well mutant B-RAF and 7.5 ng/well MEK-1 in the final assay conditions. Compounds were serially diluted in assay buffer containing 1% DMSO and 20 μl of test compound at a concentration 3-fold more than the final concentration, and were added to a polypropylene V-well reaction plate. Vehicle control wells received buffer only with DMSO at equivalent concentrations to the test wells. […] These reaction plates were incubated at room temperature for 30 minutes. Capture of MEK-1 was initiated by transferring 50 μl of the reaction mixture to a Nunc Maxisorp™ microplate that is designed for non-specific protein capture. After 30 minute capture of MEK-1 at room temperature, this plate was washed with TBST (6×200 μL/well) to fully terminate the reaction. The plate was then blocked for 1 hour by the addition of 100 μl/well of Superblock™ in phosphate buffered saline (PBS) blocking reagent. Plate was again washed with TBST (6 times with 200 μl/well), followed by the addition of 70 μl/well of Upstate anti-phospho MEK ½ diluted 1:1000 in Pierce Superblock (PBS). After a 60 minute incubation, this plate was washed with TBST (6 times with 200 μl/well), and 70 μl of the secondary antibody (Pierce Alkaline Phosphatase tagged goat anti-rabbit) prepared at 1:4000 in Superblock, were added. After a 45 minute incubation at room temperature, the wells of the microplate were washed with TBST (6 times with 200 μl/well), and thereafter 100 μl/well of Attophos™ fluorescent alkaline phosphatase substrate was added according to the manufacturer's instructions (JBL Scientific). Fluorescence was read on a Perkin Elmer Envision multilabel reader, using the following filters: Excitation Filter: CFP430 nM, Emission Filter: Emission Filter 579 nM.

The mark [1] stands for this setting: 50 μM ATP, MEK-1 substrate, read-out: Mut-B-Raf IC50.

The structures appear in SMILES notation. Where two headings read alike, the source gives them in different places. A value given as a limit tells only on which side of the number the result lay.

The term EC50 denotes the concentration needed to bring the measured effect to its halfway point. Read a high EC50 as a need for much substance. One may read the IC50 as the concentration needed to halve the response being measured.

T1 sequence (P15056 whole entry V600E): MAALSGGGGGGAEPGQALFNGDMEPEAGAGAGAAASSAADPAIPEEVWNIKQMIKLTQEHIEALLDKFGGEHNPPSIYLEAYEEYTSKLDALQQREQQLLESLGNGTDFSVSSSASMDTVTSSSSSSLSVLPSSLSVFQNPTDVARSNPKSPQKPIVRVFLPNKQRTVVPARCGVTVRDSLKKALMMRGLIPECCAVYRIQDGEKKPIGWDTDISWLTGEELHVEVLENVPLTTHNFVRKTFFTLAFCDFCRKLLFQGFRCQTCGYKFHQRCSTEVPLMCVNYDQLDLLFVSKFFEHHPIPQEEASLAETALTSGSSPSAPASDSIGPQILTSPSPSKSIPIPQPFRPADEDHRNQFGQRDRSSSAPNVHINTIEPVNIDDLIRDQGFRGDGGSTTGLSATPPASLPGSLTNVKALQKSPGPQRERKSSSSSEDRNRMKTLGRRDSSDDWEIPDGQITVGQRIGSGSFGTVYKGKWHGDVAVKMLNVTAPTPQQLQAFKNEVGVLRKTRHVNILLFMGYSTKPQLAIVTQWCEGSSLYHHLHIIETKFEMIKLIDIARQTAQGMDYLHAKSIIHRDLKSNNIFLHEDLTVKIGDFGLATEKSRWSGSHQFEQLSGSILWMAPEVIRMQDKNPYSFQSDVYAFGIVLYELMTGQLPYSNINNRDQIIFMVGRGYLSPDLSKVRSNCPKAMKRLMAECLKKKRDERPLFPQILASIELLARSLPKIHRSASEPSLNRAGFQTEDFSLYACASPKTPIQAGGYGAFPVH

`O=P(O)(O)Oc1cccc(-c2nc3sccn3c2-c2ccnc(N[C@@H]3CCCN(S(=O)(=O)c4ccc(Cl)cc4)C3)n2)c1` [Compound 2, (R)-3-(5-(2-(1-(4-chlorophenylsulfonyl)piperidin-3-ylamino)pyrimidin-4-yl)imidazo[2,1-b]thiazol-6-yl)phenyl dihydrogen phosphate] registered an EC50 with p-Erk (A375) of 260 nM. At mutant B-RAF, this compound had an IC50 of 1900 nM.
Compound `O=P(O)(O)OCOc1cccc(-c2nc3sccn3c2-c2ccnc(NC3CCN(S(=O)(=O)c4ccc(Cl)cc4)CC3)n2)c1` [Compound 8, (3-(5-(2-(1-(4-chlorophenylsulfonyl)piperidin-4-ylamino)pyrimidin-4-yl)imidazo[2,1-b]thiazol-6-yl)phenoxy)methyl dihydrogen phosphate] had a concentration giving a half-maximal response (EC50) in the assay on p-Erk (A375) of 938 nM. Further, the IC50 at mutant B-RAF (setting [1]) turned out to be 405 nM.
On to `Cn1ccc(S(=O)(=O)N2CCC[C@@H](Nc3nccc(-c4c(-c5ccc(F)c(OCOP(=O)(O)O)c5)nc5occn45)n3)C2)n1` [Compound 24, (R)-(2-fluoro-5-(5-(2-(1-(1-methyl-1H-pyrazol-3-ylsulfonyl)piperidin-3-ylamino)pyrimidin-4-yl)imidazo[2,1-b]oxazol-6-yl)phenoxy)methyl dihydrogen phosphate], for which a half-maximal effect in the assay with p-Erk (A375) (EC50) was put at 52 nM. In addition, on mutant B-RAF (setting [1]), the half-maximal inhibitory concentration (IC50) stood at 28 nM.
In the assay on p-Erk (A375), `O=P(O)(O)Oc1cccc(-c2nc3occn3c2-c2ccnc(N[C@@H]3CCCN(S(=O)(=O)c4ccc(Cl)cc4)C3)n2)c1` [Compound 5, (R)-3-(5-(2-(1-(4-chlorophenylsulfonyl)piperidin-3-ylamino)pyrimidin-4-yl)imidazo[2,1-b]oxazol-6-yl)phenyl dihydrogen phosphate] displayed an EC50 of 127 nM. At mutant B-RAF, the IC50 came out at 1900 nM.
`O=S(=O)(c1ccc(Cl)cc1)N1CCC[C@@H](Nc2nccc(-c3c(-c4cccc(O)c4)nc4sccn34)n2)C1` [Compound 1, (R)-3-(5-(2-(1-(4-chlorophenylsulfonyl)piperidin-3-ylamino)pyrimidin-4-yl)imidazo[2,1-b]thiazol-6-yl)phenol] came in with an EC50 in the assay with p-Erk (A375) of 11 nM. Besides, on mutant B-RAF (setting [1]), the concentration for half-maximal inhibition (IC50) came out at 6 nM.
Regarding `O=P(O)(O)Oc1cccc(-c2nc3occn3c2-c2ccnc(NC3CCN(S(=O)(=O)C4CC4)CC3)n2)c1` [Compound 12, 3-(5-(2-(1-(cyclopropylsulfonyl)piperidin-4-ylamino)pyrimidin-4-yl)imidazo[2,1-b]oxazol-6-yl)phenyl dihydrogen phosphate], the EC50 in the assay on p-Erk (A375) worked out at 177 nM. The IC50 against mutant B-RAF is greater than 3300 nM.
Taken in the same sequence, the figures for `O=P(O)(O)Oc1cccc(-c2nc3occn3c2-c2ccnc(NC3CCN(S(=O)(=O)c4ccc(F)cc4)CC3)n2)c1` [Compound 10, 3-(5-(2-(1-(4-fluorophenylsulfonyl)piperidin-4-ylamino)pyrimidin-4-yl)imidazo[2,1-b]oxazol-6-yl)phenyl dihydrogen phosphate] were 88 nM and 1170 nM.
The matching figures for `Cn1ccc(S(=O)(=O)N2CCC[C@@H](Nc3nccc(-c4c(-c5cccc(OP(=O)(O)O)c5)nc5occn45)n3)C2)n1` [Compound 18, (R)-3-(5-(2-(1-(1-methyl-1H-pyrazol-3-ylsulfonyl)piperidin-3-ylamino)pyrimidin-4-yl)imidazo[2,1-b]oxazol-6-yl)phenyl dihydrogen phosphate]: 87 nM and greater than 3300 nM.
In turn, `Cn1ccc(S(=O)(=O)N2CCC(Nc3nccc(-c4c(-c5cccc(OCOP(=O)(O)O)c5)nc5occn45)n3)CC2)n1` [Compound 21, (3-(5-(2-(1-(1-methyl-1H-pyrazol-3-ylsulfonyl)piperidin-4-ylamino)pyrimidin-4-yl)imidazo[2,1-b]oxazol-6-yl)phenoxy)methyl dihydrogen phosphate] registered an EC50 in the assay with p-Erk (A375) of 141 nM. The half-maximal inhibitory concentration (IC50) on mutant B-RAF (setting [1]) was found to be 1160 nM.
In turn, `O=P(O)(O)OCOc1cccc(-c2nc3occn3c2-c2ccnc(NC3CCN(S(=O)(=O)C4CC4)CC3)n2)c1` [Compound 13, (3-(5-(2-(1-(cyclopropylsulfonyl)piperidin-4-ylamino)pyrimidin-4-yl)imidazo[2,1-b]oxazol-6-yl)phenoxy)methyl dihydrogen phosphate] came in with an EC50 with p-Erk (A375) of 161 nM. Also, on mutant B-RAF (setting [1]), the IC50 was greater than 3300 nM.
Take `Cn1ccc(S(=O)(=O)N2CCC[C@@H](Nc3nccc(-c4c(-c5cccc(OP(=O)(O)O)c5)nc5sccn45)n3)C2)n1` [Compound 15, (R)-3-(5-(2-(1-(1-methyl-1H-pyrazol-3-ylsulfonyl)piperidin-3-ylamino)pyrimidin-4-yl)imidazo[2,1-b]thiazol-6-yl)phenyl dihydrogen phosphate]: in the assay with p-Erk (A375), the “deviation in EC50 (cell-based ERK inhibition) relative to compound 14” value is on record as “about 2 fold” and the EC50 worked out at 8 nM. Further, at mutant B-RAF, the IC50 is 2410 nM and the “increase in IC50 relative to compound 14” value was roughly 400 fold.
`Cn1ccc(S(=O)(=O)N2CCC[C@@H](Nc3nccc(-c4c(-c5cccc(OCOP(=O)(O)O)c5)nc5sccn45)n3)C2)n1` [Compound 16, (R)-(3-(5-(2-(1-(1-methyl-1H-pyrazol-3-ylsulfonyl)piperidin-3-ylmino)pyrimidin-4-yl)imidazo[2,1-b]thiazol-6-yl)phenoxy)methyl dihydrogen phosphate]: in the assay on p-Erk (A375), the “deviation in EC50 (cell-based ERK inhibition) relative to compound 14” value was roughly 4 fold and the EC50 was determined as 4 nM. Also, on mutant B-RAF (setting [1]), the IC50 stood at 1160 nM. Further, on mutant B-RAF, the “increase in IC50 relative to compound 14” value was roughly 193 fold.
The compound `O=P(O)(O)OCOc1cccc(-c2nc3sccn3c2-c2ccnc(N[C@@H]3CCCN(S(=O)(=O)c4ccc(Cl)cc4)C3)n2)c1` [Compound 3, (R)-(3-(5-(2-(1-(4-chlorophenylsulfonyl)piperidin-3-ylamino)pyrimidin-4-yl)imidazo[2,1-b]thiazol-6-yl)phenoxy)methyl dihydrogen phosphate] gave an EC50 in the assay with p-Erk (A375) of 71 nM. Moreover, the IC50 on mutant B-RAF (setting [1]) came to 375 nM.
Compound `Cn1ccc(S(=O)(=O)N2CCC[C@@H](Nc3nccc(-c4c(-c5ccc(F)c(OP(=O)(O)O)c5)nc5occn45)n3)C2)n1` [Compound 23, (R)-2-fluoro-5-(5-(2-(1-(1-methyl-1H-pyrazol-3-ylsulfonyl)piperidin-3-ylamino)pyrimidin-4-yl)imidazo[2,1-b]oxazol-6-yl)phenyl dihydrogen phosphate] came in with an EC50 with p-Erk (A375) of 9 nM. Further, it took 1050 nM to reach half-maximal inhibition against mutant B-RAF (IC50).
In the case of `O=P(O)(O)OCOc1cccc(-c2nc3occn3c2-c2ccnc(N[C@@H]3CCCN(S(=O)(=O)c4ccc(Cl)cc4)C3)n2)c1` [Compound 6, (R)-(3-(5-(2-(1-(4-chlorophenylsulfonyl)piperidin-3-ylamino)pyrimidin-4-yl)imidazo[2,1-b]oxazol-6-yl)phenoxy)methyl dihydrogen phosphate], in the assay on p-Erk (A375), the response was half-maximal at 12 nM (EC50). Also, the 50% inhibitory concentration (IC50) on mutant B-RAF (setting [1]) was 1410 nM.

The record behind these values is patent publication US20100183600A1, “RAF Inhibitors and Their Uses” (ARQULE, INC., priority 2008, published 2010).
